9 compounds from PubChem BioAssay AID248 (DTP/NCI, 2004) can be followed below.

The test has as its system L1210 leukemia ip in BDF1 mice, survival T/C. The experiment in a line: NCI In Vivo Anticancer Drug Screen. Data for tumor model L1210 Leukemia (intraperitoneal) in B6D2F1 (BDF1) mice. To be noted: endpoint: mean survival time, higher = longer survival. The gist of the method: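 Tumor was transplanted into mice, which were then dosed with test compound or vehicle alone. Survival was recorded for each group, and the treated figure was expressed relative to the control figure.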

[1] abbreviates: dose: 100.0 mg/kg/injection, schedule: Q01DX001 (ip), vehicle: carboxymethylcellulose (CMC).
Where [2] appears, read: dose: 200.0 mg/kg/injection, schedule: Q01DX001 (ip), vehicle: carboxymethylcellulose (CMC).
Setting [3] is: dose: 400.0 mg/kg/injection, schedule: Q01DX001 (ip), vehicle: carboxymethylcellulose (CMC).
The mark [4] stands for this setting: dose: 100.0 mg/kg/injection, schedule: Q04DX002 (ip), vehicle: Klucel (hydroxypropylcellulose) (HPC).
[5] abbreviates: dose: 200.0 mg/kg/injection, schedule: Q04DX002 (ip), vehicle: Klucel (hydroxypropylcellulose) (HPC).
Where [6] appears, read: dose: 400.0 mg/kg/injection, schedule: Q04DX002 (ip), vehicle: Klucel (hydroxypropylcellulose) (HPC).

Where “and” joins values, the source holds several entries; their conditions need not be identical. Equal entries are not always repeated. Inconclusive results and toxic doses are left out.

Regarding `Oc1ccc2ccccc2c1-c1c(O)ccc2ccccc12`, the T/C (dose: 12.5 mg/kg/injection, schedule: Q01DX Z (ip), vehicle: other) was 106 % of control; the T/C (dose: 25.0 mg/kg/injection, schedule: Q01DX Z (ip), vehicle: other) was 103 % of control; the T/C (dose: 50.0 mg/kg/injection, schedule: Q01DX Z (ip), vehicle: other) was 106 % of control; the T/C (dose: 100.0 mg/kg/injection, schedule: Q01DX009 (ip), vehicle: Klucel (hydroxypropylcellulose) (HPC)) was 97 % of control; the T/C (dose: 100.0 mg/kg/injection, schedule: Q01DX Z (ip), vehicle: other) was 116 % of control; the T/C (dose: 100.0 mg/kg/injection, schedule: Q04DX003 (ip), vehicle: Klucel (hydroxypropylcellulose) (HPC)) was 111 % of control. Besides, the T/C is, setting by setting: (dose: 200.0 mg/kg/injection, schedule: Q01DX009 (ip), vehicle: Klucel (hydroxypropylcellulose) (HPC)) 94 % of control; (dose: 200.0 mg/kg/injection, schedule: Q04DX003 (ip), vehicle: Klucel (hydroxypropylcellulose) (HPC)) 94 % of control; (dose: 400.0 mg/kg/injection, schedule: Q04DX003 (ip), vehicle: Klucel (hydroxypropylcellulose) (HPC)) 103 % of control.
Regarding `COC(=O)C[CH2][Ge]([CH3])([CH3])[CH3]`, the T/C runs as follows: (dose: 6.25 mg/kg/injection, schedule: Q04DX002 (ip), vehicle: saline with Tween-80) 89 % of control; (dose: 12.5 mg/kg/injection, schedule: Q04DX002 (ip), vehicle: saline with Tween-80) 96 % of control; (dose: 25.0 mg/kg/injection, schedule: Q04DX002 (ip), vehicle: saline with Tween-80) 96 % of control; (dose: 100.0 mg/kg/injection, schedule: Q04DX002 (ip), vehicle: saline with Tween-80) 95 % of control; (dose: 200.0 mg/kg/injection, schedule: Q04DX002 (ip), vehicle: saline with Tween-80) 95 % of control; (dose: 400.0 mg/kg/injection, schedule: Q04DX002 (ip), vehicle: saline with Tween-80) 93 % of control.
In the case of `CCOC(=O)C1=C(C)C(C)C(=O)NC1=O` (stereo not drawn), the T/C runs as follows: (dose: 100.0 mg/kg/injection, schedule: Q01DX001 (ip), vehicle: saline with Tween-80) 100 % of control; (dose: 200.0 mg/kg/injection, schedule: Q01DX001 (ip), vehicle: saline with Tween-80) 101 % of control; (dose: 200.0 mg/kg/injection, schedule: Q01DX009 (ip), vehicle: saline with Tween-80) 110 % of control; (dose: 400.0 mg/kg/injection, schedule: Q01DX001 (ip), vehicle: saline with Tween-80) 96 % of control; (dose: 400.0 mg/kg/injection, schedule: Q01DX009 (ip), vehicle: saline with Tween-80) 96 % of control.
In the case of `CCc1ccc(NC2=C(OC)C(=O)C(Nc3ccc(CC)cc3)=C(OC)C2=O)cc1`, the T/C reads like this: (dose: 50.0 mg/kg/injection, schedule: Q01DX001 (ip), vehicle: carboxymethylcellulose (CMC)) 98 % of control; under setting [1], 93 % of control; under setting [2], 98 % of control; under setting [3], 90 % of control.
`CS(=O)(=O)OCCN(CCOS(C)(=O)=O)c1ccc([N+](=O)[O-])c(C(F)(F)F)c1`: the T/C by setting is: (dose: 50.0 mg/kg/injection, schedule: Q01DX001 (ip), vehicle: saline) 94 % of control; (dose: 100.0 mg/kg/injection, schedule: Q01DX001 (ip), vehicle: saline) 96 % of control; (dose: 200.0 mg/kg/injection, schedule: Q01DX001 (ip), vehicle: saline) 96 % of control; (dose: 400.0 mg/kg/injection, schedule: Q01DX001 (ip), vehicle: saline) 94 % of control.
As for `CCC(=O)Nc1ccccc1C`, the T/C is, setting by setting: under setting [4], 92 % of control; under setting [5], 103 % of control; under setting [6], 110 % of control.
Turning to `Cc1ccc(C(O)c2cnc(C)n2Cc2ccccc2)cc1` (stereo not drawn), the T/C (dose: 100.0 mg/kg/injection, schedule: Q01DX009 (ip), vehicle: carboxymethylcellulose (CMC)) was 96 % of control; the T/C under setting [4] is 94 % of control; the T/C (dose: 100.0 mg/kg/injection, schedule: Q04DX002 (ip), vehicle: carboxymethylcellulose (CMC)) is 94 % of control and 112 % of control; the T/C (dose: 100.0 mg/kg/injection, schedule: Q04DX003 (ip), vehicle: carboxymethylcellulose (CMC)) is 107 % of control; the T/C (dose: 200.0 mg/kg/injection, schedule: Q01DX009 (ip), vehicle: carboxymethylcellulose (CMC)) was 100 % of control and 107 % of control; the T/C under setting [5] was 109 % of control. The T/C was 94 % of control and 98 % of control (dose: 200.0 mg/kg/injection, schedule: Q04DX002 (ip), vehicle: carboxymethylcellulose (CMC)); 92 % of control (dose: 200.0 mg/kg/injection, schedule: Q04DX003 (ip), vehicle: carboxymethylcellulose (CMC)); 96 % of control and 86 % of control (dose: 400.0 mg/kg/injection, schedule: Q01DX009 (ip), vehicle: carboxymethylcellulose (CMC)); 88 % of control under setting [6]; 94 % of control and 95 % of control (dose: 400.0 mg/kg/injection, schedule: Q04DX002 (ip), vehicle: carboxymethylcellulose (CMC)); 96 % of control (dose: 400.0 mg/kg/injection, schedule: Q04DX003 (ip), vehicle: carboxymethylcellulose (CMC)).
With `CC(CNC(=O)CCOS(C)(=O)=O)CNC(=O)CCOS(C)(=O)=O`, the T/C is 115 % of control under setting [1]; 105 % of control (dose: 100.0 mg/kg/injection, schedule: Q04DX003 (ip), vehicle: other); 113 % of control (dose: 132.0 mg/kg/injection, schedule: Q01DX009 (ip), vehicle: other); 107 % of control under setting [2]; 122 % of control (dose: 200.0 mg/kg/injection, schedule: Q01DX009 (ip), vehicle: other); 121 % of control (dose: 200.0 mg/kg/injection, schedule: Q04DX003 (ip), vehicle: other). In addition, the T/C (dose: 264.0 mg/kg/injection, schedule: Q04DX003 (ip), vehicle: saline) was 114 % of control and the T/C under setting [3] was 120 % of control.
As for `CCN=C(N)Nc1ccc(NC(=O)c2ccc(C(=O)Nc3ccc(NC(N)=NCC)cc3)cc2)cc1`, the T/C is 101 % of control (dose: 0.12 mg/kg/injection, schedule: Q01DX Z (ip), vehicle: carboxymethylcellulose (CMC)); 105 % of control (dose: 0.25 mg/kg/injection, schedule: Q01DX Z (ip), vehicle: carboxymethylcellulose (CMC)); 154 % of control (dose: 1.0 mg/kg/injection, schedule: Q01DX Z (ip), vehicle: carboxymethylcellulose (CMC)); 227 % of control (dose: 2.0 mg/kg/injection, schedule: Q01DX Z (ip), vehicle: carboxymethylcellulose (CMC)); 261 % of control (dose: 3.0 mg/kg/injection, schedule: Q01DX Z (ip), vehicle: carboxymethylcellulose (CMC)); 264 % of control (dose: 4.0 mg/kg/injection, schedule: Q01DX Z (ip), vehicle: carboxymethylcellulose (CMC)). The T/C was 198 % of control (dose: 6.0 mg/kg/injection, schedule: Q01DX Z (ip), vehicle: carboxymethylcellulose (CMC)); 155 % of control (dose: 8.0 mg/kg/injection, schedule: Q01DX Z (ip), vehicle: carboxymethylcellulose (CMC)); 122 % of control (dose: 11.0 mg/kg/injection, schedule: Q01DX001 (ip), vehicle: carboxymethylcellulose (CMC)); 122 % of control (dose: 11.0 mg/kg/injection, schedule: Q01DX001 (ip), vehicle: other); 121 % of control (dose: 16.0 mg/kg/injection, schedule: Q01DX Z (ip), vehicle: carboxymethylcellulose (CMC)); 151 % of control (dose: 21.0 mg/kg/injection, schedule: Q01DX001 (ip), vehicle: carboxymethylcellulose (CMC)). Further, the T/C is, setting by setting: (dose: 21.0 mg/kg/injection, schedule: Q01DX001 (ip), vehicle: other) 155 % of control; (dose: 32.0 mg/kg/injection, schedule: Q01DX001 (ip), vehicle: carboxymethylcellulose (CMC)) 163 % of control; (dose: 32.0 mg/kg/injection, schedule: Q01DX001 (ip), vehicle: other) 164 % of control; (dose: 32.0 mg/kg/injection, schedule: Q01DX Z (ip), vehicle: carboxymethylcellulose (CMC)) 91 % of control; (dose: 48.0 mg/kg/injection, schedule: Q01DX001 (ip), vehicle: carboxymethylcellulose (CMC)) 209 % of control; (dose: 48.0 mg/kg/injection, schedule: Q01DX001 (ip), vehicle: other) 204 % of control. Besides, the T/C is 118 % of control (dose: 50.0 mg/kg/injection, schedule: Q01DX Z (oral), vehicle: carboxymethylcellulose (CMC)); 104 % of control (dose: 100.0 mg/kg/injection, schedule: Q01DX Z (oral), vehicle: carboxymethylcellulose (CMC)); 96 % of control (dose: 200.0 mg/kg/injection, schedule: Q01DX Z (oral), vehicle: carboxymethylcellulose (CMC)); 118 % of control (dose: 400.0 mg/kg/injection, schedule: Q01DX Z (oral), vehicle: carboxymethylcellulose (CMC)).
